Data set [1] can be described thus: Cytotoxicity against mouse NIH/3T3 cells after 48 hrs by neutral red uptake assay. Type of data set: cell-based, NIH3T3. The conditions noted are these: read-out: TC50.
The subject of a further data set is PC-3. Kind of data set: Antiproliferative activity against human PC3 cells after 72 hrs by WST-1 assay. Type of data set: functional, cell-based. To be noted: PC-3, 72 h.
A short description of data set [2]: Antiproliferative activity against human M12 cells after 72 hrs by WST-1 assay. In kind it is functional, cell-based. The conditions noted are these: M12, 72 h.
Data set [3] concerns the target C-C chemokine receptor type 5 (Homo sapiens, UniProt P51681). Kind of data set: Antagonist activity at CCR5 (unknown origin) expressed in human MOLT4 cells assessed as inhibition of RANTES-stimulated calcium mobilization treated for 15 mins prior to RANTES addition by spectrophotometric analysis. In kind it is functional, cell-based, MOLT-4. Background: Calcium assays in cells follow changes in intracellular calcium, usually with a dye or a luminescent sensor.

One may read the IC50 as the concentration that gives 50% inhibition.

Sequence of C-C chemokine receptor type 5 (P51681 whole entry): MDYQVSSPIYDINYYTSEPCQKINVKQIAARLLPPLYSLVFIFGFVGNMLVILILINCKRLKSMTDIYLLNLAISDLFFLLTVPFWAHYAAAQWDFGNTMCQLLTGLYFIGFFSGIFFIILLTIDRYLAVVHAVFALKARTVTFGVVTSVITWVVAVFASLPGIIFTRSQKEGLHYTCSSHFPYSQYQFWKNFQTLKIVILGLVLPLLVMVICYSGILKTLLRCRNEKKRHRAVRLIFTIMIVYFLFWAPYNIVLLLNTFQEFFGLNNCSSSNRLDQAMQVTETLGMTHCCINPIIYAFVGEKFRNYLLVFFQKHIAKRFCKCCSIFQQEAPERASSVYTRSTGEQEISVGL

Take `CCN(CC)c1ccc(CN2CCN(c3ccc(OC(C)C)c(NC(=O)c4cnccn4)c3)CC2)cc1`: the CC50 at 48 h in data set [1] turned out to be 31.9 µM. The values for the IC50 (in the data set on PC-3; in data set [2]) were 6.5 µM and 11.4 µM, respectively.

On to `CC(C)Oc1ccc(N2CCN(Cc3ccc([N+](=O)[O-])cc3)CC2)cc1NC(=O)c1cnccn1`, for which the CC50 at 48 h in data set [1] is 29.3 µM. Further, the figures for the IC50 (in the data set on PC-3; in data set [2]) were 49.1 µM and 78.7 µM, respectively.

For the compound `CC(C)Oc1ccc(N2CCN(Cc3ccccc3)CC2)cc1NC(=O)c1cnccn1`, in data set [1], the CC50 at 48 h was found to be 46.6 µM. Further, the values for the IC50 (in the data set with PC-3; in data set [2]) were 67 µM and 29.9 µM, respectively.

As for `CC(C)Oc1ccc(N2CCN(Cc3ccccc3[N+](=O)[O-])CC2)cc1NC(=O)c1cnccn1`, the CC50 at 48 h in data set [1] is above 50 µM. For the same compound, the figures for the IC50 (in the data set on PC-3; in data set [2]; in data set [3]) were 62.9 µM, 183 µM and 16.8 µM, respectively.

As to `CC(C)Oc1ccc(N2CCN(Cc3ccc(Cl)cc3)CC2)cc1NC(=O)c1cnccn1`, in data set [1], the CC50 at 48 h was determined as 1.6 µM. The IC50 was determined as 56.1 µM in the data set with PC-3 and 26.3 µM in data set [2].

In the case of `CC(C)Oc1ccc(N2CCN(Cc3ccc(Br)cc3)CC2)cc1NC(=O)c1cnccn1`, the CC50 at 48 h in data set [1] is above 50 µM. The IC50 with PC-3 turned out to be 31.5 µM; in data set [2], 48.8 µM.

On to `COC(=O)c1ccc(CN2CCN(c3ccc(OC(C)C)c(NC(=O)c4cnccn4)c3)CC2)cc1`, for which the IC50 with PC-3 came to 91.5 µM; in data set [2] it was 73.7 µM.

Turning to `CC(C)Oc1ccc(N2CCN(Cc3ccc(C(=O)O)cc3)CC2)cc1NC(=O)c1cnccn1`, the IC50 in the data set with PC-3 is 74 µM; in data set [2], 129 µM.

With `CC(C)Oc1ccc(N2CCN(Cc3ccc(S(C)(=O)=O)cc3)CC2)cc1NC(=O)c1cnccn1`, the IC50 with PC-3 was above 100 µM; in data set [2], 141 µM.

As to `Cc1ccc(CN2CCN(c3ccc(OC(C)C)c(NC(=O)c4cnccn4)c3)CC2)cc1`, the IC50 with PC-3 was determined as 19.7 µM; in data set [2] it was 15.8 µM.

As for `CC(C)Oc1ccc(N2CCN(Cc3ccc(N)cc3)CC2)cc1NC(=O)c1cnccn1`, the CC50 at 48 h in data set [1] stood at 10.7 µM. In addition, the IC50 in the data set with PC-3 turned out to be 20.1 µM; in data set [2], 19.7 µM.

In the case of `CSc1ccc(CN2CCN(c3ccc(OC(C)C)c(NC(=O)c4cnccn4)c3)CC2)cc1`, the figures for the IC50 (in the data set on PC-3; in data set [2]) were 78 µM and above 100 µM, respectively.

With `CC(=O)Nc1ccc(CN2CCN(c3ccc(OC(C)C)c(NC(=O)c4cnccn4)c3)CC2)cc1`, in data set [1], the CC50 at 48 h was determined as 7.8 µM. The IC50 was 24.3 µM in the data set on PC-3 and 39 µM in data set [2].

Turning to `CC(C)Oc1ccc(N2CCN(Cc3ccc(N(C)C)cc3)CC2)cc1NC(=O)c1cnccn1`, in data set [1], the CC50 at 48 h was above 50 µM. For the same compound, the IC50 in the data set with PC-3 worked out at 71.2 µM; in data set [2], 65.9 µM.

For the compound `Cc1ccc(-c2ccc3c(c2)C=C(C(=O)Nc2ccc(C[N+](C)(C)C4CCOCC4)cc2)CCC3)cc1`, the IC50 in the data set on PC-3 came to 37.9 µM; in data set [2], 20.4 µM.

Source of the values: ChEMBL document CHEMBL3259724, “Design, syntheses, and characterization of piperazine based chemokine receptor CCR5 antagonists as anti prostate cancer agents” (Bioorg Med Chem Lett, 2014).
